For this assay, the system named is BDF1 mice, P388 leukemia ip, median survival T/C. Description: NCI In Vivo Anticancer Drug Screen. Data for tumor model P388 Leukemia (intraperitoneal) in B6D2F1 (BDF1) mice. Conditions: endpoint: median survival time, higher = longer survival. The method in brief:
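Vehicle-dosed animals serve as the reference; survival of compound-dosed, tumour-implanted mice is divided by it.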

The mark [1] stands for this setting: dose: 25.0 mg/kg/injection, schedule: Q01DX009 (ip), vehicle: saline with Tween-80.
Setting [2] is: dose: 50.0 mg/kg/injection, schedule: Q01DX009 (ip), vehicle: saline with Tween-80.
Where [3] appears, read: dose: 100.0 mg/kg/injection, schedule: Q04DX003 (ip), vehicle: saline with Tween-80.
Setting [4] is: dose: 100.0 mg/kg/injection, schedule: Q04DX003 (ip), vehicle: Klucel (hydroxypropylcellulose) (HPC).
Setting [5] is: dose: 200.0 mg/kg/injection, schedule: Q04DX003 (ip), vehicle: Klucel (hydroxypropylcellulose) (HPC).
Where [6] appears, read: dose: 400.0 mg/kg/injection, schedule: Q04DX003 (ip), vehicle: Klucel (hydroxypropylcellulose) (HPC).
Where [7] appears, read: dose: 100.0 mg/kg/injection, schedule: Q04DX003 (ip), vehicle: saline.
The mark [8] stands for this setting: dose: 200.0 mg/kg/injection, schedule: Q04DX003 (ip), vehicle: saline.
Setting [9] is: dose: 100.0 mg/kg/injection, schedule: Q01DX009 (ip), vehicle: saline with Tween-80.
Where [10] appears, read: dose: 200.0 mg/kg/injection, schedule: Q01DX009 (ip), vehicle: saline with Tween-80.
The mark [11] stands for this setting: dose: 100.0 mg/kg/injection, schedule: Q01DX009 (ip), vehicle: Klucel (hydroxypropylcellulose) (HPC).

Results on 16 compounds are retold here after PubChem BioAssay AID328 (DTP/NCI, 2004).

Structures are written as SMILES. “And” between values parts separate entries of the source, which are not always exact repeats. Identical values can stand only once. Toxic doses and inconclusive results are not listed.

In the case of `COc1cccn(C/C=C(\C)CCC=C(C)C)c1=O`, the T/C is 116 % of control under setting [1]; 109 % of control under setting [2]; 91 % of control (dose: 50.0 mg/kg/injection, schedule: Q04DX003 (ip), vehicle: saline with Tween-80); 93 % of control (dose: 80.0 mg/kg/injection, schedule: Q01DX009 (ip), vehicle: saline with Tween-80); 100 % of control under setting [3]; 116 % of control (dose: 150.0 mg/kg/injection, schedule: Q01DX009 (ip), vehicle: saline with Tween-80).

With `COc1ccc(OC)c(/C=C/C(=O)c2ccc(Cl)cc2)c1`, the T/C under setting [4] is 104 % of control, the T/C under setting [5] was 95 % of control and the T/C under setting [6] was 104 % of control.

`CC(=O)OC1C(C=C(C)C)OC2CC3(C)C4=C(CCC3(C)C2C1C)C1(C)CCC(O)C(C)(C)C1CC4` (stereo not drawn): the T/C by setting is: (dose: 50.0 mg/kg/injection, schedule: Q01DX010 (sc), vehicle: steriod suspending solution) 90 % of control; (dose: 100.0 mg/kg/injection, schedule: Q01DX010 (sc), vehicle: steriod suspending solution) 90 % of control; (dose: 200.0 mg/kg/injection, schedule: Q01DX010 (sc), vehicle: steriod suspending solution) 90 % of control; (dose: 400.0 mg/kg/injection, schedule: Q01DX010 (sc), vehicle: steriod suspending solution) 86 % of control.

On to `CC(O)CN1CCCC1` (stereo not drawn), for which the T/C by setting is: (dose: 50.0 mg/kg/injection, schedule: Q04DX003 (ip), vehicle: saline) 91 % of control; under setting [7], 104 % of control; under setting [8], 104 % of control.

Turning to `COc1cc(NS(C)(=O)=O)ccc1Nc1c2ccccc2nc2c(C)cccc12`, the T/C (dose: 1.25 mg/kg/injection, schedule: Q01DX009 (ip), vehicle: Klucel (hydroxypropylcellulose) (HPC)) was 107 % of control; the T/C (dose: 2.5 mg/kg/injection, schedule: Q01DX009 (ip), vehicle: Klucel (hydroxypropylcellulose) (HPC)) is 201 % of control; the T/C (dose: 17.0 mg/kg/injection, schedule: Q04DX003 (ip), vehicle: gum acacia) was 250 % of control; the T/C (dose: 25.0 mg/kg/injection, schedule: Q04DX003 (ip), vehicle: gum acacia) is 250 % of control.

In the case of `CC(=O)C(O)N1C(=O)C=CC1=O` (stereo not drawn), the T/C was 95 % of control (dose: 0.31 mg/kg/injection, schedule: Q04DX003 (ip), vehicle: saline); 100 % of control (dose: 0.62 mg/kg/injection, schedule: Q04DX003 (ip), vehicle: saline); 100 % of control (dose: 1.25 mg/kg/injection, schedule: Q04DX003 (ip), vehicle: saline); 91 % of control (dose: 2.5 mg/kg/injection, schedule: Q04DX003 (ip), vehicle: saline); 91 % of control (dose: 5.0 mg/kg/injection, schedule: Q04DX003 (ip), vehicle: saline).

Turning to `Nc1nc(N)c(N=O)c(Nc2ccc(I)cc2)n1`, the T/C under setting [9] was 108 % of control; the T/C under setting [3] is 112 % of control; the T/C under setting [10] is 95 % of control; the T/C (dose: 200.0 mg/kg/injection, schedule: Q04DX003 (ip), vehicle: saline with Tween-80) is 108 % of control; the T/C (dose: 400.0 mg/kg/injection, schedule: Q04DX003 (ip), vehicle: saline with Tween-80) is 100 % of control.

Turning to `O=S1(=O)C=C(c2ccccc2)C1`, the T/C is 108 % of control under setting [2] and 107 % of control under setting [9].

`CN1CCN(C2=Nc3ccccc3Cc3ccccc32)CC1`: the T/C is, setting by setting: (dose: 12.5 mg/kg/injection, schedule: Q01DX009 (ip), vehicle: saline with Tween-80) 103 % of control; under setting [1], 102 % of control; under setting [2], 105 % of control and 108 % of control.

With `Cc1ccc(/C(C#N)=C2C=C(Br)/C(=N\O)C=C/2Cl)cc1`, the T/C reads like this: (dose: 28.12 mg/kg/injection, schedule: Q04DX003 (ip), vehicle: Klucel (hydroxypropylcellulose) (HPC)) 100 % of control; (dose: 56.25 mg/kg/injection, schedule: Q01DX009 (ip), vehicle: Klucel (hydroxypropylcellulose) (HPC)) 115 % of control; (dose: 56.25 mg/kg/injection, schedule: Q04DX003 (ip), vehicle: Klucel (hydroxypropylcellulose) (HPC)) 100 % of control; (dose: 100.0 mg/kg/injection, schedule: Q01DX001 (ip), vehicle: Klucel (hydroxypropylcellulose) (HPC)) 90 % of control; (dose: 112.5 mg/kg/injection, schedule: Q01DX009 (ip), vehicle: Klucel (hydroxypropylcellulose) (HPC)) 110 % of control; (dose: 112.5 mg/kg/injection, schedule: Q04DX003 (ip), vehicle: Klucel (hydroxypropylcellulose) (HPC)) 100 % of control. Besides, the T/C reads like this: (dose: 150.0 mg/kg/injection, schedule: Q01DX009 (ip), vehicle: Klucel (hydroxypropylcellulose) (HPC)) 100 % of control; (dose: 170.0 mg/kg/injection, schedule: Q04DX003 (ip), vehicle: Klucel (hydroxypropylcellulose) (HPC)) 105 % of control; (dose: 200.0 mg/kg/injection, schedule: Q01DX001 (ip), vehicle: Klucel (hydroxypropylcellulose) (HPC)) 104 % of control; (dose: 225.0 mg/kg/injection, schedule: Q01DX009 (ip), vehicle: Klucel (hydroxypropylcellulose) (HPC)) 105 % of control; (dose: 255.0 mg/kg/injection, schedule: Q04DX003 (ip), vehicle: Klucel (hydroxypropylcellulose) (HPC)) 110 % of control; (dose: 335.0 mg/kg/injection, schedule: Q01DX009 (ip), vehicle: Klucel (hydroxypropylcellulose) (HPC)) 100 % of control. Also, under “dose: 380.0 mg/kg/injection, schedule: Q04DX003 (ip), vehicle: Klucel (hydroxypropylcellulose) (HPC)”, the T/C is 100 % of control.

For `O=c1[nH]c(SCc2ccc([N+](=O)[O-])cc2)nc2ccccc12`, the T/C was 95 % of control under setting [4] and 90 % of control under setting [5].

For `O=c1nc[nH]c(=O)[nH]1`, the T/C by setting is: under setting [1], 97 % of control; under setting [2], 99 % of control; under setting [9], 97 % of control; under setting [10], 104 % of control.

In the case of `CC1(C)SC(C)(C)N(C=O)C1C(=O)O` (stereo not drawn), the T/C by setting is: under setting [11], 90 % of control; under setting [4], 91 % of control; (dose: 200.0 mg/kg/injection, schedule: Q01DX009 (ip), vehicle: Klucel (hydroxypropylcellulose) (HPC)) 109 % of control; under setting [5], 95 % of control; (dose: 400.0 mg/kg/injection, schedule: Q01DX009 (ip), vehicle: Klucel (hydroxypropylcellulose) (HPC)) 90 % of control; under setting [6], 91 % of control.

As for `COC(=O)c1cc([N+](=O)[O-])ccc1Cl`, the T/C runs as follows: under setting [7], 98 % of control; under setting [8], 102 % of control; (dose: 400.0 mg/kg/injection, schedule: Q04DX003 (ip), vehicle: saline) 100 % of control.

As to `CCCCOC(=O)C(C)OC(=O)Nc1ccccc1` (stereo not drawn), the T/C runs as follows: (dose: 100.0 mg/kg/injection, schedule: Q04DX003 (sc), vehicle: olive oil, sesame oil, peanut oil) 100 % of control; (dose: 200.0 mg/kg/injection, schedule: Q04DX003 (sc), vehicle: olive oil, sesame oil, peanut oil) 88 % of control; (dose: 400.0 mg/kg/injection, schedule: Q04DX003 (sc), vehicle: olive oil, sesame oil, peanut oil) 103 % of control.

On to `CC(=O)O[C@]1(C(C)=O)CC[C@H]2[C@@H]3C[C@H](F)C4=CC(=O)CC[C@]4(C)[C@H]3CC[C@@]21C`, for which the T/C runs as follows: (dose: 12.5 mg/kg/injection, schedule: Q01DX009 (ip), vehicle: Klucel (hydroxypropylcellulose) (HPC)) 109 % of control; (dose: 25.0 mg/kg/injection, schedule: Q01DX009 (ip), vehicle: Klucel (hydroxypropylcellulose) (HPC)) 100 % of control; (dose: 50.0 mg/kg/injection, schedule: Q01DX009 (ip), vehicle: Klucel (hydroxypropylcellulose) (HPC)) 100 % of control; under setting [11], 87 % of control; (dose: 100.0 mg/kg/injection, schedule: Q04DX003 (ip), vehicle: alcohol) 100 % of control; (dose: 200.0 mg/kg/injection, schedule: Q04DX003 (ip), vehicle: alcohol) 105 % of control. Also, the T/C (dose: 400.0 mg/kg/injection, schedule: Q04DX003 (ip), vehicle: alcohol) was 110 % of control.
